US20260191861A1, “INFLAMMASOME AND VEGF INHIBITION FOR RETINAL VASCULAR DISEASES” (University of Virginia Patent Foundation, priority 2022, published 2026)

Experiments:
[1] = tested on: participants with center-involved diabetic macular edema (CI-DME); test: Randomized clinical trial of oral lamivudine versus placebo in DME: ETDRS best-corrected visual-acuity letter score (VALS); assay type: in vivo, human
Description: A single center randomized clinical trial was conducted at a tertiary center in São Paulo, Brazil in accordance with the provisions of the Declaration of Helsinki and Good Clinical Practice guidelines. The study was approved by the local institutional review board and study participants provided written informed consent. This study was registered in the Brazilian Registry of Clinical Trials (ReBEC) under the number RBR-87b6r5s. Latinofarma (Brazil) provided the lamivudine and placebo at no cost and also provided funding for bevacizumab which was repackaged in single-used vials by Citopharma (Brazil).
Participants were excluded if they had high-risk proliferative diabetic retinopathy, received any intravitreous injection or laser photocoagulation within the previous 6 months, positive serology for human immunodeficiency virus or hepatitis B virus, or an estimated glomerular rate filtration below 40 mL/min/1.73 m^2 determined with the use of the Cockcroft-Gault equation.
Randomization was performed at the sealed envelope website (https://sealedenvelope.com), in permuted blocks and with stratification according to visual acuity in the study eye. One physician who was not involved with patient assessment was responsible for the randomization and vial delivery to the patients. The study participants, assessing physicians, and OCT technicians were unaware of the treatment group assignment at all visits.
Placebo vials were provided by the same pharmaceutical company responsible for lamivudine production using the same vehicle. The vials were concealed and delivered to the study center. […] At the 4-week visit, participants were administered an intravitreous injection of bevacizumab (1.25 mg in an injection volume of 0.05 ml) in eyes with CI-DME if the best-corrected visual-acuity letter score (VALS) was less than 69 and the retinal central subfield thickness was 325 μm or more. Injection of bevacizumab was performed by the same physician following topical anesthesia, installation of a sterile lid speculum, and application of povidone-iodine drops. No antibiotic was administered after the procedure.
Visual acuity assessment was performed by two certified assessing physicians. The same participant could be assessed by a different physician on each visit. The exam was performed using a back-illuminated 4-meter Early Treatment Diabetic Retinopathy Study (ETDRS) chart. Different ETDRS charts were used to refine the refraction and to assess the right and left eye at each visit. If fewer than 20 letters were correctly identified at 4 meters, testing was also performed at 1 meter adding+0.75 sphere. The refraction was performed without pupil dilation, in the same exam room with a standardized background illumination.
The principal analysis compared lamivudine to placebo. Change in mean VALS from baseline was the primary outcome of interest. We sought to detect a difference of 6 letters in the VALS between groups. This effect size was chosen for power analyses because this change corresponds to a difference of more than 1 line on the ETDRS or Snellen eye charts, the minimal increase in visual acuity judged to be clinically meaningful. By estimating the standard deviation to be 6 letters, we calculated that 16 eyes in each group would provide the trial with 80% power (at a 5% two-sided alpha level) to detect this difference.
To analyze the change in VALS from baseline, a mixed-effects model was employed. Random effects were included in the model to account for subject-specific variability. […] The model's estimates, confidence intervals (CI), and P values were reported for each predictor.
The exams took place at the beginning of the treatment and after 4 weeks of using the medication. At the 4-week return, […] were administered an intravitreous injection of Avastin, one of the standard anti-VEGF treatments for DME. Four weeks after the injection (8 weeks from the start of the study) participants underwent another eye examination. […]

[2] = tested on: participants with diabetic macular edema; test: Retinal central subfield thickness by spectral-domain OCT, including synthetic controls from DRCR.net Protocol T; assay type: in vivo, human
Description: Propensity score methods were used to select DRCR.net Protocol T study participants similar to lamivudine-treated patients. Inverse probability treatment weights (IPTW) and propensity score matching were used. To estimate the IPTW weights, a multinomial logistic regression was used to estimate propensity scores using important predictors including baseline visual acuity and baseline central subfield thickness along with age, gender, and duration of diabetes. Weights were calculated as the reciprocal of the estimated propensity score of the actual treatment received. Weights were then truncated at the 99th percentile. For the propensity score matched analysis, lamivudine-treated patients were matched to each DRCR.net Protocol T treatment arm (aflibercept, bevacizumab, ranibizumab) and placebo group, separately. Due to the limited sample size for matching within each group, propensity score models included the most important predictors of acuity change including baseline visual acuity, age and duration of diabetes.
For the IPTW analysis, a mixed-effects weighted model was fit with subject-specific random effects. […] The model's estimates, confidence intervals (CI), and P values were reported for each predictor. Additionally, model-based contrasts were conducted to compare the change in VALS from baseline between lamivudine and the Protocol T treatments.
Secondary outcomes included the change in central subfield thickness, the percentage of eyes with an improvement in VALS of 15 or more, the correlation between improvements in visual acuity and central subfield thickness, and systemic and ocular adverse events. Change in central subfield thickness was estimated using mixed-effects models, similar to the VALS analysis. To analyze a VALS improvement of at least 15 letters, logistic regression using generalized estimating equations (GEEs) was specified with an exchangeable correlation matrix. Model-based contrasts were estimated to make pairwise treatment comparisons.
In all consultations, patients underwent tomography with the Spectralis device (Heidelberg) under mydriasis. The acquisition protocol was the 6×6 mm region centered on the fovea. Data analysis from SD-OCT was restricted to the central field (1 mm in diameter) Intravitreous Injection of Anti-VEGF

SMILES: Nc1ccn([C@@H]2CS[C@H](CO)O2)c(=O)n1 [Lamivudine]
- Mixed model: change in visual acuity from baseline, Treatment (Lamivudine vs. Placebo), estimate ([1]; Table 4, weeks 4 and 8): 11.86
- Model-based contrast: change in visual acuity, Lamivudine - Placebo ([1]; change from baseline to week 4): 11.86
- Model-based contrast: change in visual acuity, Lamivudine - Placebo ([1]; change from baseline to week 8): 18.99
- percentage of eyes with improvement in VALS of 15 or more ([1]; week 4, oral lamivudine): 38%
- mean change in VALS from baseline ([1]; week 4, oral lamivudine 150 mg twice daily, before intravitreous bevacizumab): 9.8 letters
- mean improvement in VALS from baseline ([1]; week 8, oral lamivudine plus intravitreous bevacizumab 1.25 mg at week 4): 16.9 letters
- percentage of eyes with improvement in VALS of 15 or more ([1]; week 8, oral lamivudine plus intravitreous bevacizumab at week 4): 56%
- IPTW mixed-effect model: change in central subfield thickness, Treatment × week [8] estimate ([2]; IPTW model, interaction term): 41.98 μm
- IPTW mixed-effect model: change in central subfield thickness from baseline, treatment estimate (ref = Placebo) ([2]; IPTW model, main effect (week 4)): −48.84 μm
- IPTW contrast: change in central subfield thickness, Lamivudine vs Bevacizumab ([2]; week 4): 17.5 μm
- IPTW contrast: change in central subfield thickness, Lamivudine vs Placebo ([2]; week 4): −48.84 μm
- IPTW contrast: change in central subfield thickness, Lamivudine vs. Aflibercept ([2]; week 4): 55.49 μm
- IPTW contrast: change in central subfield thickness, Lamivudine vs. Ranibizumab ([2]; week 4): 64.83 μm
- IPTW contrast: change in central subfield thickness, Lamivudine vs. Aflibercept ([2]; week 4, listed as lamivudine): 55 μm
- IPTW contrast: change in central subfield thickness, Lamivudine vs. Ranibizumab ([2]; week 4, listed as lamivudine): 65 μm
- IPTW contrast: change in central subfield thickness, Lamivudine vs Bevacizumab ([2]; week 8): −15.34 μm
- IPTW contrast: change in central subfield thickness, Lamivudine vs Placebo ([2]; week 8): −6.86 μm
- IPTW contrast: change in central subfield thickness, Lamivudine vs. Aflibercept ([2]; week 8): 28.93 μm
- IPTW contrast: change in central subfield thickness, Lamivudine vs. Ranibizumab ([2]; week 8): 31.81 μm
- Propensity score matched contrast: change in central subfield thickness, Lamivudine vs. Aflibercept ([2]; week 4): 92.6 μm
- Propensity score matched contrast: change in central subfield thickness, Lamivudine vs. Bevacizumab ([2]; week 4): 12.6 μm
- Propensity score matched contrast: change in central subfield thickness, Lamivudine vs. Placebo ([2]; week 4): −47.7 μm
- Propensity score matched contrast: change in central subfield thickness, Lamivudine vs. Ranibizumab ([2]; week 4): 115.7 μm
- Propensity score matched contrast: change in central subfield thickness, Lamivudine vs. Aflibercept ([2]; week 4, listed as lamivudine): 93 μm
- Propensity score matched contrast: change in central subfield thickness, Lamivudine vs. Ranibizumab ([2]; week 4, listed as lamivudine): 116 μm
- Propensity score matched contrast: change in central subfield thickness, Lamivudine vs. Aflibercept ([2]; week 8): 21.2 μm
- Propensity score matched contrast: change in central subfield thickness, Lamivudine vs. Bevacizumab ([2]; week 8): −63.4 μm
- Propensity score matched contrast: change in central subfield thickness, Lamivudine vs. Placebo ([2]; week 8): −38.1 μm
- Propensity score matched contrast: change in central subfield thickness, Lamivudine vs. Ranibizumab ([2]; week 8): 37.1 μm
- Mixed-effect model: change in central subfield thickness, Treatment × week [8] estimate ([2]; unweighted model, interaction term): 3.8 μm
- Mixed-effect model: change in central subfield thickness from baseline, treatment estimate (ref = Placebo) ([2]; unweighted model, main effect (week 4)): −44.91 μm
- Contrast: change in central subfield thickness, Lamivudine vs Bevacizumab ([2]; unweighted model, week 4): 30.65 μm
- Contrast: change in central subfield thickness, Lamivudine vs Placebo ([2]; unweighted model, week 4): −44.91 μm
- Contrast: change in central subfield thickness, Lamivudine vs. Aflibercept ([2]; unweighted model, week 4): 69.64 μm
- Contrast: change in central subfield thickness, Lamivudine vs. Ranibizumab ([2]; unweighted model, week 4): 77.22 μm
- Contrast: change in central subfield thickness, Lamivudine vs Bevacizumab ([2]; unweighted model, week 8): −50.42 μm
- Contrast: change in central subfield thickness, Lamivudine vs Placebo ([2]; unweighted model, week 8): −41.1 μm
- Contrast: change in central subfield thickness, Lamivudine vs. Aflibercept ([2]; unweighted model, week 8): −1.39 μm
- Contrast: change in central subfield thickness, Lamivudine vs. Ranibizumab ([2]; unweighted model, week 8): −4.66 μm
- percentage of eyes with VALS improvement of 15 or more that had minimal improvement in central subfield thickness (≤50 μm) ([2]; week 8, lamivudine group): 64%
